Patent US8623898B2, “Glycine transporter inhibiting substances” (Taisho Pharmaceutical Co., Ltd., priority 2009, dated 2014)
Where two headings read alike, the source gives them in different places.

What was measured:
[1] = target: T1, human type 1 glycine transporter (GlyT1) (Homo sapiens, UniProt P48067); test: Glycine uptake inhibition experiment ([3H] glycine uptake in T98G cells); assay type: cell-based; details: [3H] glycine 250 nM, read-out: IC50 (glycine uptake inhibiting activity)
T1 construct: Used in the experiment were T98G cells (glioma cells) developing a human type 1 glycine transporter (GlyT1); endogenous in cells; host or cells: T98G human glioma cells
T1 sequence (P48067 1-706): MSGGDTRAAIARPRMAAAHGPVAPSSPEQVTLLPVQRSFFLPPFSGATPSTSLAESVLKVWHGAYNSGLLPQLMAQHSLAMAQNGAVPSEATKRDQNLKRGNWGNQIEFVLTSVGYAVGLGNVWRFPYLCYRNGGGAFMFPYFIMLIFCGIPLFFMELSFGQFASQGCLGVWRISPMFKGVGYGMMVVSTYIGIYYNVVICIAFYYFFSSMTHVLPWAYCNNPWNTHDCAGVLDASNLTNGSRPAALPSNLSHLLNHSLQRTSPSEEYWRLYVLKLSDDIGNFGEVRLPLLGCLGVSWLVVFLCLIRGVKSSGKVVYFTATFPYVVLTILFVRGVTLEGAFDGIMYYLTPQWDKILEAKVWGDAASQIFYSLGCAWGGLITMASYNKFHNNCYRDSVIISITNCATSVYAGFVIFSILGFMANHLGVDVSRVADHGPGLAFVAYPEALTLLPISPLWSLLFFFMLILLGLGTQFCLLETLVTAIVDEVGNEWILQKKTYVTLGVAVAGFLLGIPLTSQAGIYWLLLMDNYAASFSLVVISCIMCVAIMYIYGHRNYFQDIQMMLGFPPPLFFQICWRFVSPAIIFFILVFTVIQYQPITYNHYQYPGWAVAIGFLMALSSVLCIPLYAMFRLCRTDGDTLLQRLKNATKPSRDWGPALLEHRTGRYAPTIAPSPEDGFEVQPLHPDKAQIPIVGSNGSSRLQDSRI
Procedure: A glycine uptake inhibition experiment was conducted in accordance with the method described in Neuron, 8, 927-935, 1992. Used in the experiment were T98G cells (glioma cells) developing a human type 1 glycine transporter (GlyT1). The T98G cells were seeded in a 96-well plate at a density of 2.0×10^4 cells per well and cultured overnight in a CO2 incubator. The test substance was first dissolved in a 100% DMSO solution and then dissolved in a 10 mM HEPES buffer solution (pH 7.4) supplemented with 150 mM sodium chloride, 1 mM calcium chloride, 5 mM potassium chloride, 1 mM magnesium chloride, 10 mM glucose, and 0.2% bovine serum albumin. After removing the cell culture medium, the test substance was subjected to a 10-min pretreatment. Thereafter, the test substance and [^3H] glycine (final concentration: 250 nM) were added to the cells and reaction was performed at room temperature for 15 minutes. After the end of the reaction, the extracellular fluid was aspirated with a manifold to remove the excess marker glycine present outside of the cells; thereafter, the cells were lysed with an aqueous solution of 0.5 M sodium hydroxide. The glycine content in the cells was determined by measuring the radioactivity in the cell lysate with a liquid scintillation counter. With the amount of glycine uptake in the presence of 10 μM ALX5407 being referred to as the nonspecific uptake, the amount of specific uptake was calculated by subtracting the amount of nonspecific uptake from the total amount of uptake in the absence of 10 μM ALX5407. In addition, glycine uptake inhibiting activity (IC50) was calculated from an inhibition curve for the concentration of the test substance ranging from 10^−9 to 10^−5 M.

[2] = Membrane permeability experiment (PAMPA Evolution); assay type: in vitro ADME; details: artificial lipid GIT-0, pH 4.0, 5.0, 6.2 and 7.4, marker metoprolol
Procedure: In the development of pharmaceuticals, membrane permeability is an important factor to consider from the viewpoint of relationship with the bodily absorption of a medicament to be administered orally. Compounds having high membrane permeability are expected to feature satisfactory absorption by the intestinal tract (see Pharmaceutical Research (2002) Vol. 19, No. 7, 921-925.)
A membrane permeability test was conducted using PAMPA Evolution™ (pION INC.) in accordance with a modified version of the recommended protocol of pION INC. To be more specific, solutions of an assay compound (i.e., a DMSO solution of the compound as diluted by being added to system solutions that had been adjusted to prescribed pHs (4.0, 5.0, 6.2, and 7.4)) were prepared and added to the lower compartment (donor) of a sandwich plate having a lipid bilayer membrane formed of an artificial lipid (GIT-0). An acceptor sink buffer was added to the upper compartment (acceptor) and after the lapse of a prescribed period, the cumulative permeation of the compound was measured by performing UV spectroscopy on the solutions in the donor and acceptor, and the membrane permeability coefficient Pe (×10^−6 cm/sec) was calculated to assay the membrane permeability of the compound.

IC50 ([1]; 15 min, room temperature) [nM]	IC50 [1] [nM]	SMILES	membrane permeability coefficient Pe compared with metoprolol [2]
34.5	< 100	Cn1cnc(C(=O)N(Cc2cccc(OC(F)(F)F)c2)CC2CCOCC2)c1 [Compound 2]	higher Pe values than the high permeability marker compound metoprolol
–	≥ 1000	O=C(c1cn(C2CC2)cn1)N(Cc1cccc(OC(F)(F)F)c1)C1CCOCC1 [Compound 12]	higher Pe values than the high permeability marker compound metoprolol
13.5	< 100	Cn1cnc(C(=O)N(Cc2cccc(Cl)c2)C2CCOCC2)c1 [Compound 15]	higher Pe values than the high permeability marker compound metoprolol
9.7	< 100	Cn1cnc(C(=O)N(Cc2cccc(C(F)(F)F)c2)C2CCOCC2)c1 [Compound 16]	higher Pe values than the high permeability marker compound metoprolol
5.9	< 100	Cn1cnc(C(=O)N(Cc2ccc(F)c(Cl)c2)C2CCOCC2)c1 [Compound 24]	higher Pe values than the high permeability marker compound metoprolol
–	≥ 1000	O=C(c1c[nH]cn1)N(Cc1cccc(Cl)c1)C1CCOCC1 [Compound 26]	higher Pe values than the high permeability marker compound metoprolol
–	< 100	Cn1cnc(C(=O)N(Cc2ccc(F)c(Cl)c2)C2CCOCC2)n1 [Compound 34]	higher Pe values than the high permeability marker compound metoprolol
40.3	< 100	Cn1cnc(C(=O)N(Cc2ccc(F)c(C(F)(F)F)c2)C2CCOCC2)n1 [Compound 35]	higher Pe values than the high permeability marker compound metoprolol
28.7	< 100	Cn1cnc(C(=O)N(Cc2cccc(-c3ccccc3)c2)C2CCOCC2)n1 [Compound 55]	higher Pe values than the high permeability marker compound metoprolol
12.6	< 100	Cn1cnc(C(=O)N(Cc2ccc(F)c(-c3ccccc3)c2)C2CCOCC2)n1 [Compound 59]	higher Pe values than the high permeability marker compound metoprolol
30.6	< 100	Cn1cnc(C(=O)N(Cc2ccc(F)c(-c3ccc(Cl)cc3)c2)C2CCOCC2)n1 [Compound 60]	higher Pe values than the high permeability marker compound metoprolol
15.9	< 100	Cn1cnc(C(=O)N(Cc2ccc(F)c(-c3cccc(Cl)c3)c2)C2CCOCC2)n1 [Compound 61]	higher Pe values than the high permeability marker compound metoprolol
14.1	< 100	Cn1cnc(C(=O)N(CCc2cccc(OC(F)(F)F)c2)C2CCOCC2)c1 [Compound 70]	higher Pe values than the high permeability marker compound metoprolol
32	< 100	Cn1cnc(C(=O)N(Cc2ccc(F)c(-c3ccc(F)cc3)c2)C2CCOCC2)n1 [Compound 79]	higher Pe values than the high permeability marker compound metoprolol
21.4	< 100	Cn1cnc(C(=O)N(Cc2ccc(F)c(-c3ccc(F)c(Cl)c3)c2)C2CCOCC2)n1 [Compound 86]	higher Pe values than the high permeability marker compound metoprolol
5.4	< 100	Cn1cnc(C(=O)N(Cc2ccc(F)c(-c3cccc(OC(F)(F)F)c3)c2)C2CCOCC2)n1 [Compound 87]	higher Pe values than the high permeability marker compound metoprolol
22.4	< 100	Cn1cnc(C(=O)N(Cc2ccc(F)c(-c3ccc(OC(F)(F)F)cc3)c2)C2CCOCC2)n1 [Compound 89]	higher Pe values than the high permeability marker compound metoprolol

IC50 ([1]; 15 min, room temperature) [nM]	IC50 [1] [nM]	SMILES	membrane permeability coefficient Pe compared with metoprolol [2]
28.9	< 100	CCOc1cccc(-c2cc(CN(C(=O)c3ncn(C)n3)C3CCOCC3)ccc2F)c1 [Compound 91]	higher Pe values than the high permeability marker compound metoprolol
41.8	< 100	CCCOc1cccc(-c2cc(CN(C(=O)c3ncn(C)n3)C3CCOCC3)ccc2F)c1 [Compound 93]	–
7.6	< 100	Cn1cnc(C(=O)N(Cc2ccc(F)c(-c3cccc(CO)c3)c2)C2CCOCC2)c1 [Compound 94]	–
18.1	< 100	Cn1cnc(C(=O)N(Cc2ccc(F)c(-c3cccc(C(F)(F)F)c3)c2)C2CCOCC2)n1 [Compound 95]	higher Pe values than the high permeability marker compound metoprolol
41.1	< 100	Cn1cnc(C(=O)N(Cc2ccc(F)c(-c3cccc(CCC#N)c3)c2)C2CCOCC2)c1 [Compound 101]	–
3.8	< 100	Cn1cnc(C(=O)N(Cc2ccc(F)c(Br)c2)C2CCOCC2)c1 [Compound 102]	–
27.2	< 100	Cn1cnc(C(=O)N(Cc2ccc(F)c(-c3ccc(C(F)(F)F)cc3)c2)C2CCOCC2)c1 [Compound 104]	–
16.2	< 100	Cc1ccc(-c2cc(CN(C(=O)c3cn(C)cn3)C3CCOCC3)ccc2F)cc1 [Compound 105]	–
30	< 100	COC(=O)C(Cc1cccc(OC(F)(F)F)c1)N(C(=O)c1cn(C)cn1)C1CCOCC1 (centres unmarked) [Compound 107]	–
–	≥ 1000	Cn1cnc(C(=O)N(C2CCOCC2)C(c2ccccc2)c2ccccc2)c1 [Compound 108]	–
–	–	Cn1cnc(C(=O)N(Cc2ccc(F)c(Br)c2)C2CCOC(C)(C)C2)c1 (centres unmarked) [Compound 110]	higher Pe values than the high permeability marker compound metoprolol
–	≥ 1000	CC1CC(N(Cc2ccc(F)c(Br)c2)C(=O)c2cn(C)cn2)CC(C)O1 (centres unmarked) [Compound 111]	–
20.3	< 100	Cn1cnc(C(=O)N(Cc2ccc(F)c(-c3ccc(OC(F)(F)F)cc3)c2)C2CCSCC2)c1 [Compound 112]	–
7.1	< 100	Cn1cnc(C(=O)N(Cc2cccc(C(F)(F)F)c2)C2CCSCC2)c1 [Compound 113]	–
16.4	< 100	Cn1cnc(C(=O)N(Cc2ccc(F)c(-c3ccc(F)cc3)c2)C2CCSCC2)c1 [Compound 114]	–
–	≥ 1000	Cn1cnc(C(=O)N(Cc2cccc(C(F)(F)F)c2)C2CCS(=O)(=O)CC2)c1 [Compound 117]	–
11.3	< 100	Cc1cc(CN(C(=O)c2cn(C)cn2)C2CCSCC2)cc(OC(F)(F)F)c1 [Compound 118]	–
